Values quoted from earlier work, collected in patent publication US9039761B2, “Ocular implant delivery assemblies with distal caps” (Allergan, Inc., priority 2006, dated 2015).

Details: efficacy in vivo; Goodman and Gilman's 8th Edition p. 1447

## C[C@]12CCC(=O)C=C1CC[C@@H]1[C@@H]2[C@@H](O)C[C@@]2(C)[C@H]1CC[C@]2(O)C(=O)CO [hydrocortisone]
  potency relative to dexamethasone (fold less potent): approximately twenty-five
